Patent US11325899B2, “Benzofurane and benzothiophene derivatives as PGE2 receptor modulators” (IDORSIA PHARMACEUTICALS LTD, priority 2017, dated 2022)

What was measured:
[1] = target: T1, PTGER2 (EP2) (Homo sapiens, UniProt P43116); test: hEP2 b-arrestin assay (PathHunter HEK 293 PTGER2 b-arrestin cells); assay type: cell-based; conditions: antagonistic activity, beta-arrestin assay; read-out: hEP2 b-arr IC50
T1 construct: host or cells: HEK 293 (PathHunter PTGER2 b-arrestin cell line)
Experimental: (§1) The antagonistic activities of the compounds of formula (I) on the EP2 and EP4 receptors are determined in accordance with the following experimental method.
(§2) The assay is using the PathHunter™ HEK 293 PTGER2 and PTGER4 b-arrestin cell lines from DiscoverX. The system is based on the Enzyme Fragment Complementation Technology. Two complementing fragments of the b-galactosidase enzyme are expressed within stably transfected cells. The larger portion of b-gal, termed EA for Enzyme Acceptor, is fused to the C-terminus of b-arrestin 2. The smaller fragment, termed ProLink™ tag, is fused to PTGER2 (EP2) or PTRGER4 (EP4) at the C-terminus. Upon activation, b-arrestin is recruited which forces the interaction of ProLink and EA, allowing complementation of the two fragments of b-gal and the formation of a functional enzyme which is capable of hydrolysing the substrate and generating a chemiluminescent signal.
(§3) The HEK 293 PTGER2 b-arrestin cells (DiscoverX 93-021-4C1) are detached from culture dishes with a cell dissociation buffer (Invitrogen, 13151-014), and collected in growing medium (GM: DMEM+Glutamax-I (Invitrogen 32430)/10% FCS, 1% Penicilin/streptomycin). 5000 cells per well of a 384 well plate (white with white bottom Greiner 781080) are seeded in 20 ul per well of GM. Plate is incubated at 37° C., 5% C02 for 24 hours.
(§4) Stock solutions of test compounds are made at a concentration of 10 mM in DMSO, and serially diluted in DMSO to concentrations required for inhibition dose response curves (tested concentration range 10 μM-2 nM or 1 μM-0.2 nM).
PGE2 (Cayman 14010, stock solution: 10 mM in DMSO) is used as agonist at 5 μM final concentration, corresponding to EC80.
Five microliters of diluted compounds are transferred into the assay plate. Plate is pre-incubated 15 minutes at 37° C. Then five microliters of PGE2 (final conc. 5 μM) are transferred into the assay plate. Plate is incubated 120 minutes at 37° C.
(§5) PathHunter Glo Detection Kit components are thawed and mix according to manufacturer's instructions: 1 part Galacton Star Substrate with 5 parts Emerald II™ Solution, and 19 parts of PathHunter Cell Assay Buffer, respectively. Twelve μl of reagent are transferred to the assay plate and incubate for 1 hour at room temperature in the dark. Luminescence counts are read on a BMG Fluostar Optima reader according to manufacturer's instructions.
(§6) For each compound concentration calculate of the percentage of activity compared to DMSO control value as average±STDEV. (each concentration is measured in duplicate)
(§7) IC50 values and curves are generated with XLfit software (IDBS) using Dose-Response One Site model 203. When compounds were measured multiple times, mean values are given.

[2] = target: T2, PTGER4 (EP4) (Homo sapiens, UniProt P35408); test: hEP4 b-arrestin assay (PathHunter HEK 293 PTGER4 b-arrestin cells); assay type: cell-based; conditions: antagonistic activity, beta-arrestin assay; read-out: hEP4 b-arr IC50
T2 construct: host or cells: HEK 293 (PathHunter PTGER4 b-arrestin cell line)
Experimental: as §1, §2
as §3, with “PTGER4” for “PTGER2”, “93-030-4C1)” for “93-021-4C1)”
as §4
PGE2 (Cayman 14010, stock solution: 100 uM in DMSO) is used as agonist at 20 nM final concentration, corresponding to EC80.
Five microliters of diluted compounds are transferred into the assay plate. Plate is pre-incubated 15 minutes at 37° C. Then five microliters of PGE2 (final conc. 20 nM) are transferred into the assay plate. Plate is incubated 120 minutes at 37° C.
as §5, §6, §7

T2 sequence (P35408 whole entry): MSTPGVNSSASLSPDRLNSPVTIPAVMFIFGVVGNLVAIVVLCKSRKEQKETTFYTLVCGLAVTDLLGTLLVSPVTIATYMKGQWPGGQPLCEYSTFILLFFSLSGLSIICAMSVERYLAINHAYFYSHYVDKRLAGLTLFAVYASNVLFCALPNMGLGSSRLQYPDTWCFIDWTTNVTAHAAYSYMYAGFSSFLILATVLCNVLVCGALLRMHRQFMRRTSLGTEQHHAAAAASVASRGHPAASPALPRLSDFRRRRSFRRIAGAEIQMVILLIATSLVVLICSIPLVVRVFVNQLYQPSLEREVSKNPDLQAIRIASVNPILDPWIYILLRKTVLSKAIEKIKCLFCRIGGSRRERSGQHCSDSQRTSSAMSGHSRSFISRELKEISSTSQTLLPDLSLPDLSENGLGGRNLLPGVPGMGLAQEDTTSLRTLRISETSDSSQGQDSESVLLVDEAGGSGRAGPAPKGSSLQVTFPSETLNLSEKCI
T1 sequence (P43116 whole entry): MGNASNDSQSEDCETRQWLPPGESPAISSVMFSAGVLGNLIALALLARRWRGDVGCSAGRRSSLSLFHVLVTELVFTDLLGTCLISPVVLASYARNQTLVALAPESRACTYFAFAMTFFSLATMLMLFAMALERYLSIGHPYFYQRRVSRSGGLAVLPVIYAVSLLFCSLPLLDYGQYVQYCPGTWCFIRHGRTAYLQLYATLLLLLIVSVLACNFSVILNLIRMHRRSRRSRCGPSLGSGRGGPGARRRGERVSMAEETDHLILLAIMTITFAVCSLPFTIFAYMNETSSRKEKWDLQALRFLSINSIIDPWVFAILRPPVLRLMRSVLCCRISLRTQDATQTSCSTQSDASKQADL

Row | IC50 [1] [nM] | IC50 [2] [nM] | Compound
1 | 10 | 288 | CCCc1cc(-c2cc(NCCc3c(C)sc4c(C)cc(F)cc34)ncn2)ccc1C(N)=O [Example 206, 4-{6-[2-(5-Fluoro-2,7-dimethyl-benzo[b]thiophen-3-yl)-ethylamino]-pyrimidin-4-yl}-2-propyl-benzamide]
2 | 62 | 837 | CCCc1cc(-c2cc(NCCc3c(C)sc4c(C)cc(F)cc34)ncn2)ccc1C(=O)NCCOC [Example 208, 4-{6-[2-(5-Fluoro-2,7-dimethyl-benzo[b]thiophen-3-yl)-ethylamino]-pyrimidin-4-yl}-N-(2-methoxy-ethyl)-2-propyl-benzamide]
3 | 8 | 280 | CCCc1cc(-c2cc(NCCc3c(C)sc4c(C)cc(F)cc34)ncn2)ccc1C(=O)NCCO [Example 209, 4-{6-[2-(5-Fluoro-2,7-dimethyl-benzo[b]thiophen-3-yl)-ethylamino]-pyrimidin-4-yl}-N-(2-hydroxy-ethyl)-2-propyl-benzamide]
4 | 19 | 469 | CCCc1cc(-c2cc(NCCc3c(C)sc4c(C)cc(F)cc34)ncn2)ccc1C(=O)NC [Example 210, 4-{6-[2-(5-Fluoro-2,7-dimethyl-benzo[b]thiophen-3-yl)-ethylamino]-pyrimidin-4-yl}-N-methyl-2-propyl-benzamide]
5 | 30 | 367 | CCOc1cc(-c2cc(NCCc3c(C)sc4c(C)cc(F)cc34)ncn2)ccc1C(=O)NCCO [Example 211, 2-Ethoxy-4-{6-[2-(5-fluoro-2,7-dimethyl-benzo[b]thiophen-3-yl)-ethylamino]-pyrimidin-4-yl}-N-(2-hydroxy-ethyl)-benzamide]
6 | 11 | 667 | CCOc1cc(-c2cc(NCCc3c(C)sc4c(C)cc(F)cc34)ncn2)ccc1C(=O)NC [Example 212, 2-Ethoxy-4-{6-[2-(5-fluoro-2,7-dimethyl-benzo[b]thiophen-3-yl)-ethylamino]-pyrimidin-4-yl}-N-methyl-benzamide]
7 | 10 | 405 | CCOc1cc(-c2cc(NCCc3c(C)sc4c(C)cc(F)cc34)ncn2)ccc1C(N)=O [Example 213, 2-Ethoxy-4-{6-[2-(5-fluoro-2,7-dimethyl-benzo[b]thiophen-3-yl)-ethylamino]-pyrimidin-4-yl}-benzamide]
8 | 143 | 151 | CCOc1cc(-c2cc(NCCc3c(C)sc4c(C)cc(F)cc34)ncn2)ccc1C1(C(=O)O)CC1 [Example 215, 1-(2-Ethoxy-4-{6-[2-(5-fluoro-2,7-dimethyl-benzo[b]thiophen-3-yl)-ethylamino]-pyrimidin-4-yl}-phenyl)-cyclopropanecarboxylic acid]
9 | 126 | 847 | CCOc1cc(-c2cc(NCCc3c(C)sc4c(C)cc(F)cc34)ncn2)c(F)cc1CC(=O)O [Example 217, (2-Ethoxy-5-fluoro-4-{6-[2-(5-fluoro-2,7-dimethyl-benzo[b]thiophen-3-yl)-ethylamino]-pyrimidin-4-yl}-phenyl)-acetic acid]
10 | 35 | 487 | COc1cc(-c2cc(NCCc3c(C)sc4c(C)cc(F)cc34)ncn2)ccc1CCC(=O)O [Example 223, 3-(4-{6-[2-(5-Fluoro-2,7-dimethyl-benzo[b]thiophen-3-yl)-ethylamino]-pyrimidin-4-yl}-2-methoxy-phenyl)-propionic acid]

More lines, now with the values behind:

Row | Compound | IC50 [1] [nM] | IC50 [2] [nM]
11 | CCCc1cc(-c2cc(NCCc3c(C)sc4c(C)cc(F)cc34)ncn2)ccc1C(=O)NCC(C)(C)O [Example 207, 4-{6-[2-(5-Fluoro-2,7-dimethyl-benzo[b]thiophen-3-yl)-ethylamino]-pyrimidin-4-yl}-N-(2-hydroxy-2-methyl-propyl)-2-propyl-benzamide] | 26 | 335
12 | Cc1sc2c(C)cc(F)cc2c1CCNc1cc(-c2cnn(C(C)(C)C(=O)O)c2)ncn1 [Example 214, 2-(4-{6-[2-(5-Fluoro-2,7-dimethyl-benzo[b]thiophen-3-yl)-ethylamino]-pyrimidin-4-yl}-pyrazol-1-yl)-2-methyl-propionic acid] | 237 | 388
13 | CCOc1c(CC(=O)O)ccc(-c2cc(NCCc3c(C)sc4c(C)cc(F)cc34)ncn2)c1F [Example 216, (2-Ethoxy-3-fluoro-4-{6-[2-(5-fluoro-2,7-dimethyl-benzo[b]thiophen-3-yl)-ethylamino]-pyrimidin-4-yl}-phenyl)-acetic acid] | 41 | 234
14 | CCCc1cc(-c2cc(NCCc3c(C)sc4c(C)cc(F)cc34)ncn2)ccc1C1(C(=O)O)CC1 [Example 218, 1-(4-{6-[2-(5-Fluoro-2,7-dimethyl-benzo[b]thiophen-3-yl)-ethylamino]-pyrimidin-4-yl}-2-propyl-phenyl)-cyclopropanecarboxylic acid] | 95 | 143
15 | CCCc1cc(-c2cc(NCCc3c(C)sc4c(C)cc(F)cc34)ncn2)sc1CC(=O)O [Example 219, (5-{6-[2-(5-Fluoro-2,7-dimethyl-benzo[b]thiophen-3-yl)-ethylamino]-pyrimidin-4-yl}-3-propyl-thiophen-2-yl)-acetic acid] | 41 | 211
16 | Cc1sc2c(C)cc(F)cc2c1CCNc1cc(-c2cc(OC(F)F)c(CC(=O)O)s2)ncn1 [Example 220, (3-Difluoromethoxy-5-{6-[2-(5-fluoro-2,7-dimethyl-benzo[b]thiophen-3-yl)-ethylamino]-pyrimidin-4-yl}-thiophen-2-yl)-acetic acid] | 44 | 407
17 | Cc1sc2c(C)cc(F)cc2c1CCNc1cc(-c2cc3cccc(C(=O)O)c3[nH]2)ncn1 [Example 221, 2-{6-[2-(5-Fluoro-2,7-dimethyl-benzo[b]thiophen-3-yl)-ethylamino]-pyrimidin-4-yl}-1H-indole-7-carboxylic acid] | 24 | 908
18 | Cc1sc2c(C)cc(F)cc2c1CCNc1cc(-c2cc3cccc(C(=O)O)c3s2)ncn1 [Example 222, 2-{6-[2-(5-Fluoro-2,7-dimethyl-benzo[b]thiophen-3-yl)-ethylamino]-pyrimidin-4-yl}-benzo[b]thiophene-7-carboxylic acid] | 14 | 453
19 | (4-{6-[2-(2-Cyano-benzo[b]thiophen-3-yl)-ethylamino]-pyrimidin-4-yl}-2-ethoxy-phenyl)-acetic acid [Example 175] | 89 | 492
